Laboratory results as given in US20250243488A1, “METHODS OF MODULATING PROGRANULIN EXPRESSION USING ANTISENSE OLIGONUCLEOTIDES TARGETING REGULATORY RNAS” (Camp4 Therapeutics Corporation, priority 2022, published 2025).
Oligonucleotides are written 5' to 3', each unit as a sugar letter and its base; * is a phosphorothioate linkage, no mark a phosphodiester; rarer units and linkages stand in square brackets, end groups in braces. Plain capitals give the bases only. e = 2'-O-(2-methoxyethyl) (MOE); [5mC] = 5-methylcytosine

Test system: GRN mRNA
Assay: GRN mRNA qPCR in SK-N-AS cells transfected with ASOs
Type: cell-based, human
Details: SK-N-AS, normalized to CO-1589; for hGRN mRNA FC: Table 9, 48 hours post-transfection
Method: The best ASOs based on increased GRN mRNA fold-change were selected for further characterization in dose titration studies. Briefly, human neuroblastoma SK-N-AS cells were transfected with 20 to 160 nM of ASOs CO-3423, CO-3431, CO-3463, and CO-3503. A steric non-targeting control ASO (sNTC) was used as a control. Cells were collected for mRNA analysis after 48 hours and GRN mRNA quantified by qPCR. Housekeeping genes for normalization were GAPDH and PPIA, and mRNA fold change (FC) was normalized to sNTC.
36 additional ASOs were designed with different modifications and base walking around selected ASOs. The effect of increasing doses of these ASOs was assessed in the human neuroblastoma cell line SK-N-AS following transfection. Relative GRN mRNA levels in SK-N-AS cells after treatment was assessed 48-hours post-transfection, and data from exemplary ASOs is shown in FIGS. 5A and 5B.
Additional chemical modifications, including LNA, modifications were made to CO-3423. SK-N-AS cells were transfected with increasing concentrations of the LNA/PS modified ASOs and GRN mRNA quantified by qPCR. ASOs including different LNA modifications of CO-3423 had similar efficacy (i.e, similar increased GRN mRNA expression). GRN mRNA was normalized to the average fold-change of cells treated with two steric non-targeting control ASOs (CO-3772 and CO-1589 (sNTC1)).
The effect of ASO length on GRN gene expression modulation was also investigated. SK-N-AS cells were transfected with increasing concentrations of the longer ASOs and GRN mRNA quantified by qPCR. Increasing the length of CO-3423 increased the potency of the ASO, as shown in Table 4. mRNA was normalized to the average fold change of cells treated with two steric non-targeting control ASOs (CO-3772 and CO-1589 (sNTC1)).
To determine whether variations in the PO/PS internucleotide bond linkages impacted the ability of CO-3423 and CO-3431 to modulate gene expression, several modified ASOs based on these parent ASOs were prepared. SK-N-AS cells were transfected with increasing concentrations of the mixed PO/PS bond ASOs described in Tables 5 and 6, and GRN mRNA quantified by qPCR.
GRN mRNA fold-change after treatment with mixed PO/PS bond versions of CO-3423 is shown in Table 5. mRNA was normalized to the average fold change of cells treated with steric nontargeting controls (CO-3772, CO-1589 (sNTC1), and CO-1929 (sNTC3)).
GRN mRNA fold-change after treatment with mixed PO/PS bond versions of CO-3431 is shown in Table 6. mRNA was normalized as described above.
To further assess the effect of additional modifications on the ability of CO-3423 parent ASO to modulate GRN gene expression, additional LNA tiling and PO bond modifications were incorporated to CO-3423. SK-N-AS cells were transfected with increasing concentrations of the modified ASOs and GRN mRNA quantified by qPCR. CO-3423 was used for comparison. GRN mRNA was normalized to the average fold-change of cells treated with a steric non-targeting control ASO, CO-1589 (sNTC1).
To further assess the effect of modifications on the ability of CO-3463 parent ASO to modulate GRN gene expression, ASOs based on this ASOS incorporating additional LNA modifications were prepared and compared to […]. SK-N-AS cells were transfected with increasing concentrations of the ASOs and GRN mRNA quantified by qPCR. GRN mRNA was normalized to the average fold-change of cells treated with a steric non-targeting control ASO, CO-1589 (sNTC1).
68 additional ASOs were designed to target intergenic enhancers (eRNA). 48 hours post-transfection, the cells were collected for GRN mRNA analysis using qPCR. CO-1589, a steric nontargeting control ASO, was used as a control. GRN mRNA was normalized to cells treated with CO-1589.
The best hits from these ASOs were tested in a dose escalation study. Cells were incubated for 48 hours. Subsequently, the cells were collected for mRNA quantification via RT-qPCR. […]

Substance | hGRN mRNA FC (120 nM) [FC] | other results
CO-4585: ASO designed to target intergenic enhancers (eRNA) (antisense eT*e[5mC]*eG*eA*eA*eT*e[5mC]*eT*e[5mC]*e[5mC]*eG*eG*e[5mC]*eT*e[5mC]*eT*eT*e[5mC]*eA*e[5mC]) | 1.4 | 
CO-4586: ASO designed to target intergenic enhancers (eRNA) (antisense eT*eG*eA*e[5mC]*eA*eA*eG*e[5mC]*eG*eG*eG*eA*eT*e[5mC]*eG*eG*eA*eG*eA*eG) | 0.9 | 
CO-4587: ASO designed to target intergenic enhancers (eRNA) (antisense eT*eT*e[5mC]*eT*eA*eA*eA*e[5mC]*eG*e[5mC]*eG*eA*eA*eG*eT*eG*eG*eG*eT*eG) | 1.2 | 
CO-4588: ASO designed to target intergenic enhancers (eRNA) (antisense eG*e[5mC]*eT*eG*eG*eT*eT*eT*e[5mC]*eT*e[5mC]*eT*eG*eT*eT*eA*eG*eG*eA*e[5mC]) | 0.9 | 
CO-4589: ASO designed to target intergenic enhancers (eRNA) (antisense e[5mC]*eG*e[5mC]*eA*eG*eG*e[5mC]*eT*eA*eG*eG*eA*eG*eT*eA*e[5mC]*e[5mC]*e[5mC]*eA*eT) | 1.1 | 
CO-4590: ASO designed to target intergenic enhancers (eRNA) (antisense eG*eT*e[5mC]*eA*eA*eA*eG*eT*e[5mC]*eG*eA*eG*eG*e[5mC]*e[5mC]*eT*eA*e[5mC]*e[5mC]*e[5mC]) | 1.3 | 
CO-4591: ASO designed to target intergenic enhancers (eRNA) (antisense eG*eA*eT*eA*eG*eT*eT*eG*eG*e[5mC]*e[5mC]*e[5mC]*e[5mC]*eT*e[5mC]*eG*eG*eA*eG*eT) | 1.1 | 
CO-4592: ASO designed to target intergenic enhancers (eRNA) (antisense eG*eG*eT*e[5mC]*eA*e[5mC]*eA*eG*eA*eT*eT*eG*e[5mC]*eA*e[5mC]*eT*e[5mC]*eT*e[5mC]*e[5mC]) | 1.1 | 
CO-4593: ASO designed to target intergenic enhancers (eRNA) (antisense eT*eT*eT*eT*eG*e[5mC]*e[5mC]*e[5mC]*eA*eG*e[5mC]*eG*e[5mC]*e[5mC]*e[5mC]*e[5mC]*eT*eT*eT*eA) | 0.8 | 
CO-4594: ASO designed to target intergenic enhancers (eRNA) (antisense eA*eA*eA*eG*eG*eA*e[5mC]*eG*e[5mC]*e[5mC]*eT*eT*e[5mC]*eT*e[5mC]*eT*e[5mC]*eG*eG*eG) | 1.3 | 
CO-4595: ASO designed to target intergenic enhancers (eRNA) (antisense eA*eG*e[5mC]*e[5mC]*e[5mC]*eG*eA*e[5mC]*e[5mC]*eT*eT*eG*eA*e[5mC]*eT*eG*eA*eT*eA*eG) | 1.0 | 
CO-4596: ASO designed to target intergenic enhancers (eRNA) (antisense e[5mC]*eA*eA*e[5mC]*eT*eA*eT*e[5mC]*eA*eG*eT*e[5mC]*eA*eA*eG*eG*eT*e[5mC]*eG*eG) | 1.0 | 
CO-4597: ASO designed to target intergenic enhancers (eRNA) (antisense eA*eG*eG*e[5mC]*eG*eT*e[5mC]*e[5mC]*eT*eT*eT*e[5mC]*e[5mC]*eA*eT*eT*e[5mC]*e[5mC]*e[5mC]*eT) | 0.9 | 
CO-4598: ASO designed to target intergenic enhancers (eRNA) (antisense eG*eT*eG*e[5mC]*eA*eA*eT*e[5mC]*eT*eG*eT*eG*eA*e[5mC]*e[5mC]*eT*eG*eT*eA*eA) | 1.1 | 
CO-4599: ASO designed to target intergenic enhancers (eRNA) (antisense eG*eG*e[5mC]*e[5mC]*eA*eA*e[5mC]*eT*eA*eT*e[5mC]*eA*eG*e[5mC]*eT*eT*eT*e[5mC]*e[5mC]*e[5mC]) | 1.0 | 
CO-4600: ASO designed to target intergenic enhancers (eRNA) (antisense eT*eT*eA*eG*e[5mC]*eA*e[5mC]*eG*eT*eG*eG*eA*e[5mC]*eT*e[5mC]*e[5mC]*eG*eA*eG*eG) | 1.0 | 
CO-4601: ASO designed to target intergenic enhancers (eRNA) (antisense eG*eT*eA*eG*eG*e[5mC]*e[5mC]*eT*e[5mC]*eG*eA*e[5mC]*eT*eT*eT*eG*eA*e[5mC]*eG*eT) | 1.0 | 
CO-4602: ASO designed to target intergenic enhancers (eRNA) (antisense eT*eA*e[5mC]*eT*e[5mC]*e[5mC]*eT*eA*eG*e[5mC]*e[5mC]*eT*eG*e[5mC]*eG*e[5mC]*e[5mC]*eT*eT*eT) | 1.2 | 
CO-4603: ASO designed to target intergenic enhancers (eRNA) (antisense e[5mC]*e[5mC]*eA*e[5mC]*eT*eT*e[5mC]*eG*e[5mC]*eG*eT*eT*eT*eA*eG*eA*eA*e[5mC]*eT*eT) | 1.3 | 
CO-4604: ASO designed to target intergenic enhancers (eRNA) (antisense eT*e[5mC]*eT*e[5mC]*e[5mC]*eG*eA*eT*e[5mC]*e[5mC]*e[5mC]*eG*e[5mC]*eT*eT*eG*eT*e[5mC]*eA*eG) | 1.2 | 
CO-4605: ASO designed to target intergenic enhancers (eRNA) (antisense e[5mC]*eG*eG*eG*eA*eG*eA*e[5mC]*eA*eG*eG*eA*eA*eG*eG*e[5mC]*eT*eT*eA*eA) | 1.2 | 
CO-4606: ASO designed to target intergenic enhancers (eRNA) (antisense eA*e[5mC]*eG*eT*eG*eA*eA*eG*eA*eG*e[5mC]*e[5mC]*eG*eG*eA*eG*eA*eT*eT*e[5mC]) | 1.4 | 3.75 nM FC (GRN mRNA) (Table 10, 3.75 nM, 48 hours): 1.1 FC; 7.5 nM FC (GRN mRNA) (Table 10, 7.5 nM, 48 hours): 1.1 FC; 15 nM FC (GRN mRNA) (Table 10, 15 nM, 48 hours): 1.2 FC; 30 nM FC (GRN mRNA) (Table 10, 30 nM, 48 hours): 1.3 FC; 60 nM FC (GRN mRNA) (Table 10, 60 nM, 48 hours): 1.4 FC; 120 nM FC (GRN mRNA) (Table 10, 120 nM, 48 hours): 1.7 FC
CO-4607: ASO designed to target intergenic enhancers (eRNA) (antisense eA*eA*eG*eA*eA*eA*eT*eA*eG*eA*eT*eT*eA*e[5mC]*e[5mC]*e[5mC]*e[5mC]*eG*eT*eT) | 1.1 | 
CO-4608: ASO designed to target intergenic enhancers (eRNA) (antisense eT*eA*eG*eA*e[5mC]*eA*e[5mC]*eT*eT*e[5mC]*e[5mC]*eA*eG*e[5mC]*e[5mC]*e[5mC]*eA*e[5mC]*e[5mC]*eT) | 1.1 | 
CO-4609: ASO designed to target intergenic enhancers (eRNA) (antisense e[5mC]*e[5mC]*eA*eA*eT*eA*eA*eA*eG*e[5mC]*e[5mC]*eT*eT*eG*eG*eG*eT*eG*e[5mC]*e[5mC]) | 1.2 | 
CO-4610: ASO designed to target intergenic enhancers (eRNA) (antisense eG*eG*eA*e[5mC]*eA*eT*eG*e[5mC]*eT*eG*eG*eA*eA*eA*eG*eT*e[5mC]*eT*eT*eA) | 1.2 | 
